Results published in patent US9561228B2 (Celgene Avilomics Research, Inc., priority 2013, dated 2017).
Read-outs that look alike come from different tables or passages of the source.

Key:
[1] = test system: ERK1/2 phosphorylation of p90RSK in HCT116 cells; assay: Detection of total and phospho-RSK by MSD ELISA (HCT116); format: cell-based; conditions: Homo sapiens, HCT-116, read-out: ERK1/ERK2 PRSK HCT116 EC50
Procedure, shortened: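 HCT116 cells treated with compound in RPMI/10% FBS for 2 h at 37° C, then lysed. Phospho-RSK (Ser380) and total RSK in lysates measured by MSD sandwich electrochemiluminescence ELISA as a readout of ERK1/2 activity.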

[2] = molecular target: T1, MEK1 activated ERK1 (Homo sapiens, UniProt P27361); assay: Omnia continuous-read kinase assay for potency against MEK1 activated ERK1; format: biochemical
T1 construct: purchased Millipore (Billerica, Mass.) 14-439-K
Procedure, shortened: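 Apparent IC50 came from initial reaction slopes (RFU vs time) plotted against log inhibitor with a variable-slope fit. Reactions were started with ERK1 (4 nM final) added to 50 μM ATP, roughly at its appKM, and 10 μM Sox-conjugated ST17 peptide in 20 mM Tris pH 7.5, 5 mM MgCl2. Fluorescence was monitored every 71 seconds.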

[3] = MEK1 activated ERK1, ATP at KM, read-out: ERK1 Omnia WT ATP KM IC50

T1 sequence (P27361 whole entry): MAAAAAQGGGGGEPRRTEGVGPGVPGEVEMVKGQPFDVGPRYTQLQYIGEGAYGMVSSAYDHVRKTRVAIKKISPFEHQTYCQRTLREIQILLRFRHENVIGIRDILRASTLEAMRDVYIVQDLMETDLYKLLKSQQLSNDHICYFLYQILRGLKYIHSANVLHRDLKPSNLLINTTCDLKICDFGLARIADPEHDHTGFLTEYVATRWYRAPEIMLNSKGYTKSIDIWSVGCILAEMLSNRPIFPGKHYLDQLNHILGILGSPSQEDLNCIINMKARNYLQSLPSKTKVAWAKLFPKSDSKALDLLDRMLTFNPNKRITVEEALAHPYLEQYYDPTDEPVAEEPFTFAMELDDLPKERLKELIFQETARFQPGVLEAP

EC50 [1]	IC50 ([2]; ATP at KM, WT)	Structure (SMILES)	IC50 [2, 3]
< 100 nM	< 100 nM	C=CC(=O)Nc1cc(CCC(N)=O)ccc1Nc1nc(Nc2cc(OC)ncc2C)ncc1C(F)(F)F [Compound I-400, N-(5-(3-amino-3-oxopropyl)-2-((2-((2-methoxy-5-methylpyridin-4-yl)amino)-5-(trifluoromethyl)pyrimidin-4-yl)amino)phenyl)acrylamide]	–
501 to 999 nM	101 to 500 nM	C=CC(=O)Nc1cc(C)ccc1Nc1nc(Nc2cc(OCC)ncc2C)ncc1C(F)(F)F [Compound I-358, N-(2-((2-((2-ethoxy-5-methylpyridin-4-yl)amino)-5-(trifluoromethyl)pyrimidin-4-yl)amino)-5-methylphenyl)acrylamide]	–
501 to 999 nM	101 to 500 nM	C=CC(=O)Nc1c(Nc2nc(Nc3cc(OC)ncc3C)ncc2C(F)(F)F)ccc(C)c1F [Compound I-367, N-(2-fluoro-6-((2-((2-methoxy-5-methylpyridin-4-yl)amino)-5-(trifluoromethyl)pyrimidin-4-yl)amino)-3-methylphenyl)acrylamide]	–
< 100 nM	< 100 nM	C=CC(=O)Nc1cc(CN2CCN(S(C)(=O)=O)CC2)ccc1Nc1nc(Nc2cc(OC)ncc2C)ncc1C(F)(F)F [Compound I-384, N-(2-((2-((2-methoxy-5-methylpyridin-4-yl)amino)-5-(trifluoromethyl)pyrimidin-4-yl)amino)-5-((4-(methylsulfonyl)piperazin-1-yl)methyl)phenyl)acrylamide]	–
501 to 999 nM	< 100 nM	C=CC(=O)Nc1cc(O[C@H](C)C(=O)N2CCN(C(C)=O)CC2)ccc1Nc1nc(Nc2cc(OC)ncc2C)ncc1C(F)(F)F [Compound I-409, (R)—N-(5-((1-(4-acetylpiperazin-1-yl)-1-oxopropan-2-yl)oxy)-2-((2-((2-methoxy-5-methylpyridin-4-yl)amino)-5-(trifluoromethyl)pyrimidin-4-yl)amino)phenyl)acrylamide]	–
101 to 500 nM	–	C=CC(=O)Nc1cc(C)ccc1Nc1nc(Nc2nc(OC)ncc2Cl)ncc1C(F)(F)F [Compound I-344, N-(2-((2-((5-chloro-2-methoxypyrimidin-4-yl)amino)-5-(trifluoromethyl)pyrimidin-4-yl)amino)-5-methylphenyl)acrylamide]	–
–	–	C=CC(=O)Nc1cc(C)ccc1Nc1nc(Nc2cc(OC)nc(OC)c2)ncc1C(F)(F)F [Compound I-96]	101 to 500 nM
101 to 500 nM	101 to 500 nM	C=CC(=O)Nc1cc(C)ccc1Nc1nc(Nc2cc(C(=O)OC)nn2C)ncc1C(F)(F)F [Compound I-418, Methyl 5-((4-((2-acrylamido-4-methylphenyl)amino)-5-(trifluoromethyl)pyrimidin-2-yl)amino)-1-methyl-1H-pyrazole-3-carboxylate]	–
< 100 nM	< 100 nM	C=CC(=O)Nc1cc(O[C@H](C)C(N)=O)ccc1Nc1nc(Nc2cc(OC)ncc2C)ncc1C(F)(F)F [Compound I-413, (R)—N-(5-((1-amino-1-oxopropan-2-yl)oxy)-2-((2-((2-methoxy-5-methylpyridin-4-yl)amino)-5-(trifluoromethyl)pyrimidin-4-yl)amino)phenyl)acrylamide]	–
501 to 999 nM	101 to 500 nM	C=CC(=O)Nc1cc(O[C@@H](C)C(=O)N2CCN(C(C)=O)CC2)ccc1Nc1nc(Nc2cc(OC)ncc2C)ncc1C(F)(F)F [Compound I-425, (S)—N-(5-((1-(4-acetylpiperazin-1-yl)-1-oxopropan-2-yl)oxy)-2-((2-((2-methoxy-5-methylpyridin-4-yl)amino)-5-(trifluoromethyl)pyrimidin-4-yl)amino)phenyl)acrylamide]	–
> 1000 nM	> 1000 nM	C=CC(=O)Nc1cc(C)ccc1Nc1nc(Nc2cc(OC(C)C)ncc2C)ncc1C(F)(F)F [Compound I-369, N-(2-((2-((2-isopropoxy-5-methylpyridin-4-yl)amino)-5-(trifluoromethyl)pyrimidin-4-yl)amino)-5-methylphenyl)acrylamide]	–
101 to 500 nM	501 to 999 nM	C=CC(=O)Nc1cc(C)ccc1Nc1nc(Nc2cc(OC)nnc2OC)ncc1C(F)(F)F [Compound I-372, N-(2-((2-((3,6-dimethoxypyridazin-4-yl)amino)-5-(trifluoromethyl)pyrimidin-4-yl)amino)-5-methylphenyl)acrylamide]	–
101 to 500 nM	< 100 nM	C=CC(=O)Nc1cc(OCC(=O)N2CCN(C(C)=O)CC2)ccc1Nc1nc(Nc2cc(OC)ncc2OC)ncc1C(F)(F)F [Compound I-415, N-(5-(2-(4-acetylpiperazin-1-yl)-2-oxoethoxy)-2-((2-((2,5-dimethoxypyridin-4-yl)amino)-5-(trifluoromethyl)pyrimidin-4-yl)amino)phenyl)acrylamide]	–
< 100 nM	101 to 500 nM	C=CC(=O)Nc1cc(C)ccc1Nc1nc(Nc2cc(OCCO)ncc2C)ncc1C(F)(F)F [Compound I-376, N-(2-((2-((2-(2-hydroxyethoxy)-5-methylpyridin-4-yl)amino)-5-(trifluoromethyl)pyrimidin-4-yl)amino)-5-methylphenyl)acrylamide]	–
501 to 999 nM	101 to 500 nM	C=CC(=O)Nc1cc(C)ccc1Nc1nc(Nc2cc(OC)ncc2Cl)ncc1C(F)(F)F [Compound I-351, N-(2-((2-((5-chloro-2-methoxypyridin-4-yl)amino)-5-(trifluoromethyl)pyrimidin-4-yl)amino)-5-methylphenyl)acrylamide]	–
101 to 500 nM	> 1000 nM	C=CC(=O)Nc1cc(C)ccc1Nc1nc(Nc2cc(C(=O)NC)nn2C)ncc1C(F)(F)F [Compound I-424, 5-((4-((2-acrylamido-4-methylphenyl)amino)-5-(trifluoromethyl)pyrimidin-2-yl)amino)-N,1-dimethyl-1H-pyrazole-3-carboxamide]	–
–	–	C=CC(=O)Nc1cc(C)ccc1Nc1nc(Nc2cc(C(C)=O)ccc2C)ncc1C(F)(F)F [Compound I-84, N-(2-((2-((5-Acetyl-2-methylphenyl)amino)-5-(trifluoromethyl)pyrimidin-4-yl)amino)-5-methylphenyl)acrylamide]	101 to 500 nM
101 to 500 nM	–	C=CC(=O)Nc1cc(C)ccc1Nc1nc(Nc2cc(OC)cnc2Cl)ncc1C(F)(F)F [Compound I-361, N-(2-((2-((2-chloro-5-methoxypyridin-3-yl)amino)-5-(trifluoromethyl)pyrimidin-4-yl)amino)-5-methylphenyl)acrylamide]	–
501 to 999 nM	–	C=CC(=O)Nc1cc(C)ccc1Nc1nc(Nc2nc(OC)ccc2Cl)ncc1C(F)(F)F [Compound I-360, N-(2-((2-((3-chloro-6-methoxypyridin-2-yl)amino)-5-(trifluoromethyl)pyrimidin-4-yl)amino)-5-methylphenyl)acrylamide]	–
101 to 500 nM	–	C=CC(=O)Nc1cc(C)ccc1Nc1nc(Nc2nc(O)ncc2C)ncc1C(F)(F)F [Compound I-364, N-(2-((2-((2-hydroxy-5-methylpyrimidin-4-yl)amino)-5-(trifluoromethyl)pyrimidin-4-yl)amino)-5-methylphenyl)acrylamide]	–

Structure (SMILES)	EC50 [1]	IC50 ([2]; ATP at KM, WT)	IC50 [2, 3]
C=CC(=O)Nc1ccccc1Nc1nc(Nc2cc(OC)nc(N3CCN(C(C)=O)CC3)c2)ncc1C(F)(F)F [Compound I-92]	< 100 nM	–	< 100 nM
C=CC(=O)Nc1cc(C)ccc1Nc1nc(Nc2cc(OC)nc(N3CCN(C(C)=O)CC3)c2)ncc1C(F)(F)F [Compound I-93, N-(2-((2-((2-(4-Acetylpiperazin-1-yl)-6-methoxypyridin-4-yl)amino)-5-(trifluoromethyl)pyrimidin-4-yl)amino)-5-methylphenyl)acrylamide]	< 100 nM	–	101 to 500 nM
